Measured values: US9493420B2, “Quinoline derivatives and uses thereof” (Portland State University, priority 2005, dated 2016)

Experiments:
[1] = tested on: mitogen-induced murine spleen lymphocytes; assay type: cell-based; conditions: mouse spleen lymphocytes
Description: Mouse spleen lymphocytes were isolated from C57B1/6J mice by teasing tissues on a metallic sieve screen. […] Two hundred (200) μl isolated cells were then seeded in separate wells of a 96-well flat-bottom tissue culture plate at a density of 2×10^5 cells per well. […] After 72 hours incubation in a humidified atmosphere at 37° C. and 5% CO2, a solution of resazurin PBS was added to a final concentration 10 μM, and the plates were returned to the incubator for another 24 hours. Resazurin is a substrate which changes color in response to metabolic activity (such as, living cells). […] LC50 values were determined from plots of florescence versus drug concentration using non-linear regression by Prism software.

[2] = target: T1, recombinant human norepinephrine (hNET) transporter (Homo sapiens, UniProt P23975); test: Inhibition of [3H]neurotransmitter uptake, hNET; assay type: cell-based
T1 construct: expressed in transfected cells; host or cells: HEK cells expressing hNET
Description: Selected RCQs were tested for inhibition of [^3H]neurotransmitter uptake by the recombinant human serotonin (hSERT), dopamine (HEK-hDAT), and norepinephrine (hNET) transporters by a modification of the method of Eshleman et al. (J. Pharmacol. Exp. Ther., 289(2):877-885, 1999). HEK-hDAT, hSERT, and -hNET expressing cells were grown on tissue culture dishes. After removing the medium and washing the plates with Ca^2+-, Mg^2+-free phosphate buffered saline (PBS), fresh medium was added and the plates were placed in a 25° C. water bath for 5 minutes. Cells were gently lifted from the plates and cell clusters separated by trituration. 50 μL aliquots of the suspended cells were added to assay tubes containing drugs and Krebs-HEPES assay buffer in a final volume of 0.5 mL.
Competition experiments were conducted in triplicate. After a 10 minute preincubation period at 25° C., [^3H]neurotransmitter (20 nM final concentration; [^3H]DA, [^3H]5-HT, or [^3H]NE) were added, and the mixtures incubated for 10 minutes. Reactions were terminated by filtration through Wallac filtermat A filters (presoaked in 0.05% polyethylenimine), using a Tomtec cell harvester. Scintillation fluid was added to each filtered spot, and radioactivity remaining on the filters determined using a Wallac 1205 Betaplate scintillation counter.
Specific uptake was defined as the difference in uptake observed in the absence and presence of 5 μM mazindol (hDAT and hNET) or 5 μM imipramine (hSERT). Inhibition of uptake was determined by non-linear regression using Prism software.

Water solubility = assay type: physicochemical
[3] = Heme binding by UV-VIS spectrophotometric titration (association constant); conditions: pH 5.7; heme assumed dimeric (μ-oxo)
From the text: Optionally, heme binding of RCQ compounds can be determined by any method known in the art, including, for example, spectrophotometric methods, like UV-VIS spectroscopy or NMR spectroscopy. Methods of measuring heme binding to a variety of molecules using the UV-VIS spectrum have been described (see, e.g., Xu et al., J. Inorg. Biochem., 86 (2-3):617-625, 2001; Xu et al., Antimicrob. Agents Chemother., 46(1):144-150, 2002). Generally, a heme-binding compound (such as a disclosed RCQ) is mixed in increasing concentration with heme (or a heme model compound, such as porphyrin or metalloporphyrin) and the absorbance spectrum is measured from the ultraviolet region well into the visible region (from about 300 nm to about 750 nm). This spectral range includes the so-called Soret and Q-band regions that arise from porphyrin or metalloporphyrin absorbance. Upon interaction between a heme-binding compound and heme (or a heme model compound, such as porphyrin or metalloporphyrin), decreased absorbance in the Soret region is observed. […]
In particular examples, the formation of heme-RCQ complexes can be determined by UV-VIS spectrophotometric titration, using a variety of commercially available spectrophotometers (such as a Varian-Cary 3E spectrophotometer). […] Optionally, pH can be monitored throughout the procedure to ensure that it remains unchanged. […]

T1 sequence (P23975 whole entry): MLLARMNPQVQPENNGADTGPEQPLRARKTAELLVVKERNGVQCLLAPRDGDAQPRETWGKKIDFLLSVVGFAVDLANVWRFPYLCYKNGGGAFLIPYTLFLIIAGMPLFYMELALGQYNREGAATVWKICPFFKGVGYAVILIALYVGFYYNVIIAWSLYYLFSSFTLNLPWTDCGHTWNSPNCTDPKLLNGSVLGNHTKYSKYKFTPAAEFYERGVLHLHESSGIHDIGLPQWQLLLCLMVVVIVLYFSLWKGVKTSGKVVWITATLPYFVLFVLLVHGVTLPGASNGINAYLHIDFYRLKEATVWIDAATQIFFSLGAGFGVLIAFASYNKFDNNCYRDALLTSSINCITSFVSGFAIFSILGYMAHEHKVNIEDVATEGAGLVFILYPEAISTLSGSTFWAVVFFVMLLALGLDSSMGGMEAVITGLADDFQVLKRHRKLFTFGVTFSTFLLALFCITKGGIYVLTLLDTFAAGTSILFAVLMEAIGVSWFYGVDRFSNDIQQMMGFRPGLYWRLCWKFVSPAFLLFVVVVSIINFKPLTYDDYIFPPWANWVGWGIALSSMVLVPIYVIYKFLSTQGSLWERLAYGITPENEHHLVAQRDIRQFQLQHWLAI

## CN(CCCNc1ccnc2cc(Cl)ccc12)CCCN1c2ccccc2CCc2ccccc21 [RCQ_02, N′-(7-Chloro-quinolin-4-yl)-N-[3-(10,11-dihydro-dibenzo[b,f]azepin-5-yl)-propyl]-N-methyl-propane-1,3-diamine]
[1]; LC50, 72 hours + 24 hours resazurin
  Cytotoxicity: 700 nM
[1]; Table 14
  cytotoxicity values: 700 nM
[2]
  IC50: 350 nM
Water solubility
  water solubility: relatively low water solubility
[3]
  heme2.RCQ_02 association constant: approximately 7.5×10^5 M^−1
